These results are taken from patent publication US20230218555A1, “CREATINE, ITS DERIVATIVES, COMPOSITIONS AND METHODS OF USE THEREOF” (priority 2021, published 2023).

Structures are written as SMILES.

Assay type in all cases: in vivo, human
Experiment [1] has as its system dental pain. In words: Example 17: post dental surgery pain. The settings on record: about 1 gram powder in mouth. As for the experimental part:
A subject had three teeth, #23, 24 and 25 extracted at 12 noon, then had two implants posted immediately after. At about 6 pm, subject started to feel pain in the gum area after lidocaine anesthesia wore off. […] The subject took about 1 gram creatine monohydrate powder into mouth. The powder, as it dissolved in saliva, was rinsed for approximately 5 minutes, then swallowed. The dental pain stopped in about 20 minutes, and relief lasted for 8 hours.

Experiment [2] deals with rheumatoid arthritis; rheumatoid nodule. In words: Example 13: rheumatoid arthritis fingers, nodule injection and glove application. The settings on record: nodule injected with 0.15 ml of 2% aqueous solution/suspension once weekly, four injections; over 9 weeks. As for the experimental part: A subject noted changes in their fingers that appeared to be compatible with the diagnosis of early rheumatoid arthritis in autumn of the year. At about one month later there appeared over the terminal interphalangeal joint of the left third finger a raised inflammatory nodule compatible with the diagnosis of a rheumatoid nodule. The nodule was injected with 0.15 ml of a 2% aqueous solution/suspension of creatine monohydrate once weekly for four injections. […] Thereafter, for a period of one month, the subject wore a nitrile glove containing a few drops N-acetyl ethyl creatine 3% dissolved in water: propylene glycol 8:2 for about an hour twice daily on the left hand only.

For experiment [3], the system named is arthritis of cervical and thoracic spine. In words: Example 14: subcutaneous injection over sites of spinal pain. As for the experimental part:
A physician subject with continually worsening osteoarthritis of multiple joints for 15-16 years, prepared a sterile aqueous injectable solution/suspension of 2% creatine monohydrate. Under their direction, medical assistants were instructed on techniques to give subcutaneous injections of the 2% aqueous solution/suspension with either a 1 ml syringe with 27 gauge 13 mm needle or with a 1 ml insulin syringe with 30 gauge 8 mm needle.
Five intervertebral painful sites of arthritis of cervical and thoracic spine, identified by finger pressure, received a single injection of 0.3 ml of the solution.

Experiment [4] has as its system arthritic pain in the right hip joint. In words: Example 16: subcutaneous injection for hip pain. As to the method: A subject who for several weeks was experiencing disabling arthritic pain in the right hip joint, was given two subcutaneous injections of a sterile 2% aqueous solution/suspension of creatine monohydrate over the point of pain, 0.5 ml given first, and 0.6 ml given five days later. […] A third subcutaneous injection of 0.7 ml of the 2% creatine monohydrate solution/suspension was given over the point of joint pain elicited by finger pressure. […] Hip remained pain free for another 2 weeks.

The test system of experiment [5] is psoriatic arthritis, painful, swollen and erythematous right ankle. Description: Example 15: subcutaneous injection over ankle with psoriatic arthritis. The conditions noted are these: 0.5 ml of 2% subcutaneous. As to the method:
A diabetic subject with psoriasis for over 4 decades, and worsening psoriatic arthritis for about 10 years, presented with an acutely painful, swollen and erythematous right ankle. Using a 1 ml insulin syringe with short needle they injected 0.5 ml of the 2% creatine monohydrate as described above into a subcutaneous site of the anterior ankle.

For experiment [6], the system named is Rheumatoid Arthritis (RA). In words: Example 26: rheumatoid arthritis, intralesional injection and topical. The conditions noted are these: 0.15 ml of 2% aqueous solution/suspension once weekly, 4 injections; over 9 weeks. As to the method:
A subject, described in an earlier Example, after approximately 4 months of worsening symptoms, and finger joint enlargements on both hands, realized that they were rapidly developing RA, especially when a rheumatoid nodule enlarged over the terminal joint of the left […] finger to a size of approximately 1 cm in diameter, and about 3 mm thick. The nodule was initially injected with 0.15 ml of a 2% aqueous solution/suspension of creatine monohydrate once weekly for 4 injections. […] Thereafter the subject wore a nitrile glove containing a few drops of C15 3-9% dissolved in WP 82 for an hour twice daily on the left hand only. After another 2 months C15 9% in WP 82 was topically applied by means of their wearing nitrile gloves containing the C15 solution for 1 hour twice daily. […] It is intended for the subject to continue topical treatment in one form or another for an indefinite time forward.

Experiment [7] relates to painful swollen right knee. Description: Example 9: painful swelling of knee joint, three topical formulations. The conditions noted are these: before the test. As for the experimental part:
A subject with relentless painful swollen right knee for 3-4 years, not relieved by oral ibuprofen, was tested and rated analgesic efficacy of the three following formulations applied topically to the knee. [table] [table] [table]

The test system of experiment [8] is pain in the left ankle. Description: Example 8: post fracture acute ankle pain. The settings on record: before the test. From the text: A subject with a history of fractured left ankle seven years earlier, who had worn a plaster cast for several weeks at that time, related that for the past three months disturbing and increasing pain in the left ankle, which was occurring daily and was disturbing their sleep every night. […] They were provided 8 ounces of the above Formulation A (Example 4), to be applied to the painful ankle as needed.

Experiment [9] has as its system post trauma pain in the pinned ankle. Description: Example 34: ankle pain after surgical insertion of metal screws. The conditions noted are these: for extent of pain relief: 6% in WEP 244, topical. As to the method:
A subject with above described post trauma pain at the end of each day experienced painful discomfort in the pinned ankle. […] Complete relief lasted nearly 24 hours. At the end of the next day, the ankle was as painful as the days before. Subject applied 6% C20 in same liquid vehicle.

The test system of experiment [10] is psoriatic arthritis. In words: Example 35: psoriatic arthritis, topical C20 and C26. As for the experimental part: A subject with a 40 year history of psoriasis and several years of psoriatic arthritis topically applied the formulations cited in Example 34 above. Formulation of C20 was applied to both hands. […] The formulation of C26 was applied to the left ankle and foot, pain of which was relieved in about 5 minutes and lasted for 4-5 hours.

Regarding `CN(CC(=O)O)C(=N)N.O` [creatine monohydrate], the duration of relief in experiment [1] was 8 h. In addition, the “time until dental pain stopped” value in [1] (rinsed approximately 5 minutes, swallowed, person) is reported as “about 20 minutes”. The “resolution of rheumatoid nodule” value in experiment [2] and in experiment [6] was “the nodule resolved almost completely” each time. Also, the “extent of pain relief” value is on record as “All sites/areas became pain free” in experiment [3] (single subcutaneous injection of 0.3 ml of 2% aqueous solution/suspension at five intervertebral sites); “Complete relieve of pain” in [4] (third subcutaneous injection, 0.7 ml of 2%); “Complete relief of pain” in experiment [4] (two subcutaneous injections of 2% solution/suspension, 0.5 ml and 0.6 ml five days later, person); “Ankle pain completely resolved” in experiment [5] (anterior ankle, person). For the same compound, in [3] (subcutaneous 0.3 ml of 2% per site), the “time to pain free after injection” value fell in the range of 2 to 3 h. For the same compound, the duration pain free in experiment [3] (subcutaneous 0.3 ml of 2% per site, no further therapy) worked out at 7 weeks; in experiment [4] (after third injection), 2 weeks. For the same compound, the “duration of complete relief of pain” value in [4] (after the first two injections) is recorded as 2 weeks. The “time to complete relief of pain” value in [4] (third injection, 0.7 ml) is 3 to 4 h. Moreover, the “edema and erythema of the ankle” value in [5] was “completely resolved within a week”. In addition, the “state of ankle four weeks after the injection” value in experiment [5] is “remained pain free, was of normal appearance, and was completely functional as a normal ankle”. The “time to resolution of ankle pain” value in experiment [5] is given as “about 30 minutes”.
For the compound `CC(C)Cc1ccc(C(C)C(=O)O)cc1` (stereo not shown) [ibuprofen], the “pain relief by oral comparator” value in experiment [7] is “not relieved”; in experiment [8], “did relieve the pain for several hours, but the pain always recurred”.
Consider `CCOC(=O)CN(C)C(N)=NC(=O)c1ccccc1OC(C)=O` [Compound C26, N-2-acetoxybenzoyl ethyl creatinate], for which, in experiment [9] (6% in WEP 244), the “duration of complete relief” value was approximately 24 h and the “time to pain relief” value was not above 1 min. Besides, in experiment [9], the “extent of pain relief” value is listed as “completely relieved the pain”. Further, the “extent of pain relief” value in experiment [10] (6% in WEP 244 applied to left ankle and foot) is given as “relieved”. Also, in experiment [10] (left ankle and foot), the duration of relief was in the range of 4 to 5 h and the “time to pain relief” value is given as “about 5 minutes”.
Take `CCOC(=O)CN(C)C(N)=NC(=O)c1ccccc1` [Compound C20, N-benzoyl ethyl creatinate]: the “extent of pain relief” value in experiment [9] was “Some relief did occur but not complete as with C26”; in [10] (6% in WEP 244 applied to both hands) it was “completely relieved”. In [10] (both hands), the duration of relief came to 4 h. For the same compound, the “time to pain relief” value in experiment [10] (both hands) is “about 2 minutes”.
